Results: the NIST ThermoML archive (doi:10.1016/j.jct.2007.07.001)

Experiments:
[1] = molar heat capacity at constant pressure; settings: 101 kPa, Liquid, Large sample (1 g) DSC
[2] = molar heat capacity at constant pressure; xn = mol fraction of the nth substance listed; settings: 101 kPa, Liquid, Large sample (1 g) DSC

CCCCCCn1cc[n+](C)c1.F[B-](F)(F)F [1-hexyl-3-methylimidazolium tetrafluoroborate]
[1]
Settings	molar heat capacity at constant pressure [J/K/mol]
283.15 K	423.2
288.15 K	425.8
293.15 K	428.4
298.15 K	431
303.15 K	433.6
308.15 K	436.2
313.15 K	438.8
318.15 K	441.4
323.15 K	444

CCCCCCn1cc[n+](C)c1.F[B-](F)(F)F [1-hexyl-3-methylimidazolium tetrafluoroborate] + CO
molar heat capacity at constant pressure [J/K/mol], [2]
Settings	283.15 K	288.15 K	293.15 K	298.15 K	303.15 K	308.15 K	313.15 K	318.15 K	323.15 K
x1 = 0.0751	108	108.7	109.5	110.3	111.2	112.2	113.2	114.2	115.3
x1 = 0.1511	135.5	136.4	137.4	138.3	139.3	140.3	141.3	142.4	143.4
x1 = 0.2973	187.2	188.1	188.9	189.9	190.8	191.8	192.9	193.9	195.1
x1 = 0.397	220.7	221.7	222.8	223.9	225.1	226.3	227.5	228.8	230.1
x1 = 0.6423	301.9	303.6	305.3	307	308.7	310.5	312.3	314.1	315.9
x1 = 0.8759	380.4	382.7	385	387.4	389.7	392.1	394.5	396.9	399.3
x1 = 1	423.2	425.8	428.4	431	433.6	436.2	438.8	441.4	444

CCCCCCCC[n+]1ccn(C)c1.F[B-](F)(F)F [1-methyl-3-octylimidazolium tetrafluoroborate]
[1]
Settings	molar heat capacity at constant pressure [J/K/mol]
283.15 K	490.1
288.15 K	493.2
293.15 K	496.3
298.15 K	499.4
303.15 K	502.5
308.15 K	505.4
313.15 K	508.4
318.15 K	511.3
323.15 K	514.2

CCCCCCCC[n+]1ccn(C)c1.F[B-](F)(F)F [1-methyl-3-octylimidazolium tetrafluoroborate] + CO
molar heat capacity at constant pressure [J/K/mol], [2]
Settings	283.15 K	288.15 K	293.15 K	298.15 K	303.15 K	308.15 K	313.15 K	318.15 K	323.15 K
x1 = 0.0736	111.8	112.7	113.6	114.6	115.6	116.6	117.7	118.9	120.1
x1 = 0.1652	151.5	152.6	153.7	154.7	155.9	157	158.1	159.3	160.4
x1 = 0.3441	226.4	227.4	228.5	229.6	230.8	232.1	233.5	235	236.6
x1 = 0.4516	269.5	270.8	272.1	273.5	275	276.6	278.2	279.9	281.6
x1 = 0.6526	349.3	351.3	353.3	355.3	357.4	359.6	361.8	364	366.4
x1 = 0.8472	427.6	430.3	433	435.7	438.4	441.1	443.7	446.3	448.9
x1 = 1	490.1	493.2	496.3	499.4	502.5	505.4	508.4	511.3	514.2

CO [methanol]
[1]
Settings	molar heat capacity at constant pressure [J/K/mol]
283.15 K	78.6
288.15 K	79.5
293.15 K	80.4
298.15 K	81.3
303.15 K	82.3
308.15 K	83.4
313.15 K	84.5
318.15 K	85.7
323.15 K	87

CO [methanol] + CCCCCCCC[n+]1ccn(C)c1.F[B-](F)(F)F
[2], x2 = 0
Settings	molar heat capacity at constant pressure [J/K/mol]
283.15 K	78.6
288.15 K	79.5
293.15 K	80.4
298.15 K	81.3
303.15 K	82.3
308.15 K	83.4
313.15 K	84.5
318.15 K	85.7
323.15 K	87

CO [methanol] + CCCCCCn1cc[n+](C)c1.F[B-](F)(F)F
[2], x2 = 0
Settings	molar heat capacity at constant pressure [J/K/mol]
283.15 K	78.6
288.15 K	79.5
293.15 K	80.4
298.15 K	81.3
303.15 K	82.3
308.15 K	83.4
313.15 K	84.5
318.15 K	85.7
323.15 K	87
